Test results reported in PMC3265250 (Chemotherapy Research and Practice, 2011).
Values after ≈ are worked out from the molar mass of the structure shown. Where two headings read alike, the source gives them in different places. Positions of bridges follow the written chain, without caps; N, C: chain ends. Residues, ends and D or L forms follow the SMILES beside them.

Columns and labels:
[1] = system: S. aureus ATCC 6538P; test: MIC, microbroth dilution, referential strain ATCC 6538P; assay type: cell-based, Staphylococcus aureus; conditions: ATCC 6538P, microbroth dilution, MHB II, 5 × 10^5 CFU/mL, 18 h at 37°C, triplicate
Method: (§1) A total number of 24 SA strains were obtained from patients with erythrodermia and 3 reference SA ones from the American Type Culture Collection: 6538P ATCC, 9144 ATCC, and 25923 ATCC (Institute of Experimental Therapy, Wroclaw, Poland). […] Polypropylene 96-well plates (Sigma-Aldrich) were incubated for 18 h at 37°C. MIC was taken as the lowest drug concentration at which a noticeable growth was inhibited. […] The experiments were performed in triplicate.

[2] = system: S. aureus ATCC 9144; test: MIC, microbroth dilution, referential strain ATCC 9144; assay type: cell-based, Staphylococcus aureus; conditions: ATCC 9144, microbroth dilution, MHB II, 5 × 10^5 CFU/mL, 18 h at 37°C, triplicate
[3] = system: S. aureus ATCC 25923; test: MIC, microbroth dilution, referential strain ATCC 25923; assay type: cell-based, Staphylococcus aureus; conditions: ATCC 25923, microbroth dilution, MHB II, 5 × 10^5 CFU/mL, 18 h at 37°C, triplicate
Method: as §1

[4] = system: Superantigen negative S. aureus (10); conditions: for MIC 50% / MIC 90% / MIC Range / MBC Range: superantigen negative clinical isolates (10), triplicate; for MIC 50% / MIC 90% / MIC Range: microbroth dilution, MHB II, 5 × 10^5 CFU/mL, 18 h at 37°C; for MBC Range: more than 99.9% reduction of the initial inoculums
[5] = system: Superantigen positive S. aureus (14); conditions: for MIC 50% / MIC 90% / MIC Range / MBC Range: superantigen positive clinical isolates (14), triplicate; for MIC 50% / MIC 90% / MIC Range: microbroth dilution, MHB II, 5 × 10^5 CFU/mL, 18 h at 37°C; for MBC Range: more than 99.9% reduction of the initial inoculums
[6] = system: clinical isolates of SA; conditions: 18 h
[7] = system: Superantigen negative S. aureus (10); test: microbe, parasite or virus in culture; conditions: Staphylococcus aureus
[8] = system: Superantigen positive S. aureus (14); test: microbe, parasite or virus in culture; conditions: Staphylococcus aureus

CC(C)C[C@H](NC(=O)[C@H](CCCNC(=N)N)NC(=O)CNC(=O)CNC(=O)[C@@H](N)CCCNC(=N)N)C(=O)N[C@H]1CSSC[C@@H](C(=O)N[C@H](C(=O)NCC(=O)N[C@@H](CCCNC(=N)N)C(N)=O)C(C)C)NC(=O)[C@H](C(C)C)NC(=O)[C@@H]2CSSC[C@H](NC(=O)[C@H](Cc3ccc(O)cc3)NC1=O)C(=O)N[C@@H](CCCNC(=N)N)C(=O)N[C@@H](CCCNC(=N)N)C(=O)N[C@@H](CCCNC(=N)N)C(=O)N[C@@H](Cc1ccccc1)C(=O)N2 [Protegrin 1, protegrin 1]
MIC [1]: 4 µg/mL (≈ 1.86 µM)
MIC [2]: 2 µg/mL (≈ 0.928 µM)
MIC [3]: 4 µg/mL (≈ 1.86 µM)
MBC 50% [4]: 4 µg/mL (≈ 1.86 µM)
MBC 90% [4]: 8 µg/mL (≈ 3.71 µM)
MIC 50% [4]: 2 µg/mL (≈ 0.928 µM)
MIC 90% [4]: 4 µg/mL (≈ 1.86 µM)
MIC Range [4]: 1 to 4 µg/mL
MBC Range [4]: 2 to 8 µg/mL
MBC 50% [5]: 4 µg/mL (≈ 1.86 µM)
MBC 90% [5]: 8 µg/mL (≈ 3.71 µM)
MIC 50% [5]: 2 µg/mL (≈ 0.928 µM)
MIC 90% [5]: 4 µg/mL (≈ 1.86 µM)
MIC Range [5]: 1 to 4 µg/mL
MBC Range [5]: 2 to 8 µg/mL
MIC values (range) [6]: 1 to 8 µg/mL

CCCCCCCCCC(=O)N[C@@H](Cc1c[nH]c2ccccc12)C(=O)N[C@H](CC(N)=O)C(=O)N[C@@H](CC(=O)O)C(=O)N[C@@H]1C(=O)NCC(=O)N[C@@H](CCCN)C(=O)N[C@@H](CC(=O)O)C(=O)N[C@H](C)C(=O)N[C@@H](CC(=O)O)C(=O)NCC(=O)N[C@H](CO)C(=O)N[C@@H]([C@H](C)CC(=O)O)C(=O)N[C@@H](CC(=O)c2ccccc2N)C(=O)O[C@@H]1C [Daptomycin, daptomycin]
MIC [1]: 2 µg/mL (≈ 1.23 µM)
MIC [2]: 2 µg/mL (≈ 1.23 µM)
MIC [3]: 2 µg/mL (≈ 1.23 µM)
MBC 50% [4]: 2 µg/mL (≈ 1.23 µM)
MBC 90% [4]: 2 µg/mL (≈ 1.23 µM)
MIC 50% [4]: 1 µg/mL (≈ 0.617 µM)
MIC 90% [4]: 2 µg/mL (≈ 1.23 µM)
MIC Range [4]: 1 to 4 µg/mL
MBC Range [4]: 1 to 4 µg/mL
MBC 50% [5]: 2 µg/mL (≈ 1.23 µM)
MBC 90% [5]: 4 µg/mL (≈ 2.47 µM)
MIC 50% [5]: 1 µg/mL (≈ 0.617 µM)
MIC 90% [5]: 2 µg/mL (≈ 1.23 µM)
MIC Range [5]: 1 to 4 µg/mL
MBC Range [5]: 1 to 4 µg/mL
MICs values (range) [6]: 1 to 4 mg/L

CC[C@H](C)[C@@H]1NC(=O)CNC(=O)[C@H](CCCNC(=N)N)NC(=O)[C@H](Cc2ccc(O)cc2)NC(=O)[C@@H]2CSSC[C@H](NC1=O)C(=O)N[C@@H](Cc1ccc(O)cc1)C(=O)N[C@@H](CCCNC(=N)N)C(=O)N[C@@H](CCCCN)C(=O)N[C@H](C(=O)N[C@@H](CCCNC(=N)N)C(N)=O)CSSC[C@H](NC(=O)[C@H](Cc1c[nH]c3ccccc13)NC(=O)[C@@H](N)CCCCN)C(=O)N[C@@H](Cc1ccccc1)C(=O)N[C@@H](CCCNC(=N)N)C(=O)N[C@@H](C(C)C)C(=O)N2 [Tachyplesin 3, tachyplesin 3] (H-KWCFRVCYRGICYRKCR-NH2; disulfide 3-16, 7-12 (inferred); N-terminus and C-terminus assumed)
MBC 50% [4]: 2 µg/mL (≈ 0.895 µM)
MBC 90% [4]: 4 µg/mL (≈ 1.79 µM)
MBC 50% [5]: 2 µg/mL (≈ 0.895 µM)
MBC 90% [5]: 4 µg/mL (≈ 1.79 µM)
MIC values (range) [6]: 1 to 8 µg/mL

CN(C)c1cc(NC(=O)CNC(C)(C)C)c(O)c2c1C[C@H]1C[C@H]3[C@H](N(C)C)C(O)=C(C(N)=O)C(=O)[C@@]3(O)C(O)=C1C2=O [Tigecycline, tigecycline]
MIC ([1]; Staphylococcus aureus, ATCC6538P, read-out: MIC): 0.25 µg/mL (≈ 0.427 µM)
MIC ([2]; Staphylococcus aureus, ATCC9144, read-out: MIC): 0.25 µg/mL (≈ 0.427 µM)
MIC ([3]; Staphylococcus aureus, ATCC25923, read-out: MIC): 0.25 µg/mL (≈ 0.427 µM)
MBC Range [4]: 1 to 2 µg/mL
MBC Range [5]: 1 to 2 µg/mL
MIC50 ([7]; 18 h): 0.5 µg/mL (≈ 0.854 µM)
MIC90 ([7]; 18 h): 0.5 µg/mL (≈ 0.854 µM)
MIC ([7]; 18 h, read-out: MIC Range): 0.5 to 1 µg/mL (≈ 0.854 to 1.71 µM)
MIC90 ([7]; 18 h, read-out: MICs 90%): 0.5 µg/mL (≈ 0.854 µM)
MBC ([7]; read-out: MBC 50%): 1 µg/mL (≈ 1.71 µM)
MBC ([7]; read-out: MBC 90%): 1 µg/mL (≈ 1.71 µM)
MIC50 ([8]; 18 h): 0.5 µg/mL (≈ 0.854 µM)
MIC90 ([8]; 18 h): 0.5 µg/mL (≈ 0.854 µM)
MIC ([8]; 18 h, read-out: MIC Range): 0.5 to 1 µg/mL (≈ 0.854 to 1.71 µM)
MIC90 ([8]; 18 h, read-out: MICs 90%): 0.5 µg/mL (≈ 0.854 µM)
MBC ([8]; read-out: MBC 50%): 1 µg/mL (≈ 1.71 µM)
MBC ([8]; read-out: MBC 90%): 1 µg/mL (≈ 1.71 µM)

CCCCCCCCCCCCCCCC(=O)N[C@@H](CCCCN)C(=O)N[C@@H](CCCCN)C(N)=O [Lipopeptide, Pal-KK-NH2]
MIC [1]: 2 µg/mL (≈ 3.91 µM)
MIC [2]: 2 µg/mL (≈ 3.91 µM)
MIC [3]: 4 µg/mL (≈ 7.82 µM)
MBC 50% [4]: 4 µg/mL (≈ 7.82 µM)
MBC 90% [4]: 8 µg/mL (≈ 15.6 µM)
MIC 50% [4]: 2 µg/mL (≈ 3.91 µM)
MIC 90% [4]: 4 µg/mL (≈ 7.82 µM)
MIC Range [4]: 1 to 8 µg/mL
MBC Range [4]: 2 to 8 µg/mL
MBC 50% [5]: 4 µg/mL (≈ 7.82 µM)
MBC 90% [5]: 8 µg/mL (≈ 15.6 µM)
MIC 50% [5]: 2 µg/mL (≈ 3.91 µM)
MIC 90% [5]: 4 µg/mL (≈ 7.82 µM)
MIC Range [5]: 1 to 8 µg/mL
MBC Range [5]: 2 to 8 µg/mL
MIC values (range) [6]: 1 to 8 µg/mL
